Measured values published in patent US9663454B2, “3-aryl propiolonitrile compounds for thiol labeling” (Universite de Strasbourg, priority 2013, dated 2017).
Entries after “also recorded” stand apart in the source; their conditions may differ. Marks after values point to notes of the source that are not given here.

Assays:
[1] = Labeling of a cysteine derivative: conversion of arylpropiolonitriles 1-12 with AcCysNHBn, HPLC; conditions: 50 μM of each reagent, 25° C., PBS pH 7.6
Experimental: To a vial containing 985 μL of PBS (1×, pH 7.6), were subsequently added 5 μL of the stock solution of benzamide (10 mM in water), 5 μL of the stock solution of arylpropiolonitrile (1-12, 10 mM in DMSO) and 5 μL of stock solution of AcCysNHBn (7 m, 10 mM in DMSO). […] Areas under the peaks of the starting materials and hydrolysis products were normalized according to the area of the peak of the internal standard.
Obtained results are summed up in table 2 below, which presents the conversion of the compounds 1-12 in 30 minutes in presence of 7m at 50 μM concentration of each reagent and 25° C. The reaction is extremely sensitive to steric hindrances induced by substituents in ortho-position to propiolonitrile group (entries 1, 5, 8-9, 4) as well as to electronic effect of the substituent: −I and −M substituents increase (entries 10 and 12), while +M substituents decrease the reactivity of the compound (entries 3 and 7).

[2] = test system: Trastuzumab; test: Conjugation of Trastuzumab and TAMRA-SH via linker, SDS-PAGE and native ESI-MS
Experimental: To the solution of Trastuzumab (100 uL, 10 mg/mL in 50 mM borate buffer pH 8.5) was added 1.74 uL of the solution of 18 (10 mg/mL in DMSO). After incubation for 1 h at 25° C. was added 0.69 uL of TAMRA-SH (100 mM in DMSO). The mixture was incubated at 25° C. for 16 h and the conjugate was purified by size exclusion chromatography.
The comparison experiment was carried out using 4-(N-maleimidomethyl)cyclohexanecarboxylic acid N-hydroxysuccinimide ester (SMCC) instead of 18.

[3] = Hydrolytic stability in PBS, HPLC monitoring; format: physicochemical
Experimental: FIG. 3a-3b: HPLC monitoring of the hydrolysis of phenylmaleimide (2) in PBS (1×, pH 7.6) at 1 mM concentration at 25° C.; the peaks correspond, from the earliest to the latest, to
[drawing 5] conversion was monitored by disappearance of the starting material (a). Pseudo first order rate constant for the reaction was determined by plotting the ln([phenylmaleimide]) versus time and analyzing by linear regression. The constant corresponds to the absolute value of determined slope (b).
FIG. 4: HPLC monitoring of hydrolytic stability of N-(4-(cyanoethynyl)phenyl)acetamide (pNHAc-APN, 11) in PBS (1×, pH 7.6) at 1 mM concentration at 25° C. Conversion was monitored by disappearance of the starting material; the peaks correspond, from the earliest to the latest, to
To a vial containing 980 μL of PBS (1×, pH 7.6), were subsequently added 10 μL of a stock solution of benzamide and 10 μL of a stock solution of electrophile (phenylmaleimide 1 or
[drawing 112] 11) to give final concentration of 1 mM (both internal standard and electrophile). Aliquots of the reaction mixture (50 μL) were analyzed by HPLC for 5 hours of hydrolysis (injection every 30 min). Areas under the peaks of the starting materials and hydrolysis products were normalized according to the area of the peak of the internal standard.

[4] = Selectivity screening of electrophiles, whole panel of amino acid models; conditions: 1 hour, PBS (1×, pH 7.6), 1 mM reagents
Experimental: Screening for selectivity was done on benzylamides of non-protected amino acids. 100 mM stock solutions of benzylamides of amino acids (in form of TFA salts) and electrophiles (phenylpropiolonitrile and phenylmaleimide) were prepared in DMSO and stored at −20° C. A 100 mM stock solution of benzamide (used as an internal standard) was prepared in distilled water and stocked at −20° C. Analyses of reaction mixtures were conducted with Shimadzu LC with SunFire™ C18 5 μM 4.6×150 mm column (Waters). HPLC parameters were as follows: flow rate 1 mL/min, gradient from 5 to 95% of mobile phase B from 0 to 20 min, followed by 5 min at 95% of mobile phase and post time of 5 min. Mobile phase A was 0.05% TFA in water (mQ) (v/v), and mobile phase B was acetonitrile (HPLC grade). Data were analyzed using Shimadzu analysis software. Signals were normalized according to the area of the peak of the internal standard (benzamide). […]
10 μL of the stock solution of amino acid benzamide and 2.5 μL of the stock solution of benzamide were added to a vial containing 977.5 μL of PBS (1×, pH 7.6). […] Aliquots of the reaction mixture (50 μL) were analyzed by HPLC for 1 hour of hydrolysis (injections at 0, 30 and 60 min). […] Masses of corresponding adducts were detected by mass spectrometry (ESI-LCMS) in some cases (shown in bold, Table 4).

[5] = Selectivity screening of electrophiles on amino acid benzylamides, HPLC; conditions: in 1 hour in PBS (1×, pH 7.6) in presence of the electrophile, 1 mM reagents
Experimental: Screening for selectivity was done on benzylamides of non-protected amino acids. 100 mM stock solutions of benzylamides of amino acids (in form of TFA salts) and electrophiles (phenylpropiolonitrile and phenylmaleimide) were prepared in DMSO and stored at −20° C. A 100 mM stock solution of benzamide (used as an internal standard) was prepared in distilled water and stocked at −20° C. Analyses of reaction mixtures were conducted with Shimadzu LC with SunFire™ C18 5 μM 4.6×150 mm column (Waters). HPLC parameters were as follows: flow rate 1 mL/min, gradient from 5 to 95% of mobile phase B from 0 to 20 min, followed by 5 min at 95% of mobile phase and post time of 5 min. Mobile phase A was 0.05% TFA in water (mQ) (v/v), and mobile phase B was acetonitrile (HPLC grade). Data were analyzed using Shimadzu analysis software. Signals were normalized according to the area of the peak of the internal standard (benzamide). Areas under the peaks of the amino acid benzylamides were used to calculate their conversion during reaction.
10 μL of the stock solution of amino acid benzamide and 2.5 μL of the stock solution of benzamide were added to a vial containing 977.5 μL of PBS (1×, pH 7.6). The solution was stirred and 10 μL of the stock solution of electrophile were added to give 1 mM final concentrations of reagents and 0.25 mM concentration of benzamide. Aliquots of the reaction mixture (50 μL) were analyzed by HPLC for 1 hour of hydrolysis (injections at 0, 30 and 60 min). Areas under the peaks of the starting materials and hydrolysis products were normalized according to the area of peak of the internal standard. In case of phenylpropiolonitrile, none of amino acid models gave more than 1.6% conversion (see table 3 below). […] Masses of corresponding adducts were detected by mass spectrometry (ESI-LCMS) in some cases (shown in bold, Table 4).

[6] = test system: partially reduced Trastuzumab; test: Direct conjugation to partially reduced Trastuzumab, SDS-PAGE and ESI-MS
Experimental: To the solution of Trastuzumab (100 uL, 10 mg/mL in 50 mM PBS pH 7.4 with 10 mM of EDTA) was added the solution of TCEP (10 mM in water, 1.1 or 2.2 eq.). The mixture was incubated at 37° C. for 2 h and then the solution of 58 (8.25 μL, 10 mM in DMSO) was added. The mixture was incubated at 25° C. for 16 h and the conjugate was purified by size exclusion chromatography.

[7] = test system: Trastuzumab; test: Rebridging of antibody fragments, SDS-PAGE in reducing conditions; conditions: Trastuzumab reduced with 5 eq. TCEP, 15 eq. compound, 16 h at 25° C.
Experimental: To the solution of Trastuzumab (100 uL, 10 mg/mL in 50 mM PBS pH 7.4 with 10 mM of EDTA) was added the solution of TCEP (10 mM in water, 5 eq.). The mixture was incubated at 37° C. for 2 h and then the solution of 33 or 34 (10 mM in DMSO, 15 eq.) was added. The resulting solution was incubated for 16 h at 25° C. and then analyzed by SDS-PAGE in reducing conditions.

[8] = Stability of the addition product in different working solutions, HPLC; format: physicochemical; conditions: for Conversion of “addition product” in 1 h: 100 μM, 25° C.
Experimental: A 100 mM stock solution of the “addition product”
[drawing 113] was prepared in DMSO and stored at −20° C. 1 μL of the stock solution was added to 999 μL of working solutions to give 100 μM final concentration of substrate. Aliquots were analyzed at 0, 30 and 60 min. Areas under peak of starting material were normalized according to the area of the peak of the internal standard (benzamide). All measurements were carried at 25° C.

[9] = conversion of the compound in 30 minutes in presence of 7m
[10] = conversion in 60 minutes in presence of 7m

N#CC#Cc1ccc(N)cc1 [Compound 7, 3-(4-Aminophenyl)propiolonitrile]
Conversion [1, 9]: 7.4%

O=C(ON1C(=O)CCC1=O)C1CCC(CN2C(=O)C=CC2=O)CC1 (stereo not drawn) [SMCC, 4-(N-maleimidomethyl)cyclohexanecarboxylic acid N-hydroxysuccinimide ester, reference compound]
population of conjugates (in words) ([2]; native ESI-MS of the conjugate): complex mixture of undistinguishable species

COc1ccccc1C#CC#N [Compound 1, 3-(2-Methoxyphenyl)propiolonitrile]
Conversion [1, 9]: 10.1%
kobs (pseudo first order rate constant of hydrolysis) ([3]; PBS (1×, pH 7.6), 1 mM, 25° C.): 7e-05 s⁻¹
hydrolyzed ([3]; after 1 h in buffer solution): approximately 25%

N#CC#Cc1ccccc1 [phenylpropiolonitrile]
highest conversion among the amino acid models other than cysteine [4]: ≤ 1.6%
Conversion of AlaNHBn (7c) [5]: 0.1%
Conversion of ArgNHBn (7k) [5]: 0.4%
Conversion of AspNHBn (7l) [5]: 0.6%
Conversion of CysNHBn (7a) [5]: 98%
Conversion of GlnNHBn (7i) [5]: 0.1%
Conversion of GlyNHBn (7b) [5]: 0.2%
Conversion of HisNHBn (7h) [5]: 0.6%
Conversion of MetNHBn (7f) [5]: 0.1%
Conversion of SerNHBn (7e) [5]: 0.3%
Conversion of TrpNHBn (7j) [5]: 1.3%
Conversion of TyrNHBn (7g) [5]: 1.6%
Conversion of ValNHBn (7d) [5]: 0.7%

Cc1ccccc1C#CC#N [Compound 8, 3-(o-Tolyl)propiolonitrile]
Conversion [1, 9]: 10.3%

COc1cccc(C#CC#N)c1 [Compound 2, 3-(3-Methoxyphenyl)propiolonitrile]
Conversion [1, 9]: 46.8%

N#CC#Cc1ccccc1N [Compound 5, 3-(2-Aminophenyl)propiolonitrile]
Conversion [1, 9]: 10.8%

CN(C)c1ccc2c(-c3cc(C(=O)NCc4cn(-c5ccc(C#CC#N)cc5)nn4)ccc3C(=O)[O-])c3ccc(=[N+](C)C)cc-3oc2c1 [Compound 58, 4-(((1-(4-(cyanoethynyl)phenyl)-1H-1,2,3-triazol-4-yl)methyl)carbamoyl)-2-(6-(dimethylamino)-3-(dimethyliminio)-3H-xanthen-9-yl)benzoate]
molecules conjugated per antibody, in average ([6]; ESI-MS, 2.2 eq. of TCEP): 4
attachment to the antibody (in words) ([6]; SDS-PAGE of the conjugates): covalently attached to the antibody

CNC(=O)c1ccc(C#CC#N)cc1 [Compound 12, 4-(Cyanoethynyl)-N-methylbenzamide]
Conversion [1, 9]: 85.5%

N#CC#Cc1cccc(C#CC#N)c1 [Compound 34, 3,3′-(1,3-Phenylene)dipropiolonitrile]
bridging of antibody fragments (in words) [7]: successfully bridged

N#CC#Cc1ccccc1C#CC#N [Compound 33, 3,3′-(1,2-Phenylene)dipropiolonitrile]
bridging of antibody fragments (in words) [7]: successfully bridged

N#CC#Cc1ccc(C(=O)Oc2c(F)c(F)c(S(=O)(=O)O)c(F)c2F)cc1 [Compound 18, Sodium 4-((4-(cyanoethynyl)benzoyl)oxy)-2,3,5,6-tetrafluorobenzenesulfonate]
level of conjugation (in words) ([2]; SDS-PAGE, Trastuzumab + TAMRA-SH, versus SMCC): higher levels of conjugation comparing to SMCC
molecules of TAMRA conjugated per antibody, in average ([2]; native ESI-MS of the conjugate): one
population of conjugates (in words) ([2]; native ESI-MS of the conjugate): cleaner population of conjugates

COc1cccc(OC)c1C#CC#N [Compound 4, 3-(2,6-Dimethoxyphenyl)propiolonitrile]
Conversion [1, 10]: 4.8%**

N#CC#Cc1cccc(N)c1 [Compound 6, 3-(3-Aminophenyl)propiolonitrile]
Conversion [1, 9]: 42.0%

Cc1cccc(C)c1C#CC#N [Compound 9, 3-(2,6-Dimethylphenyl)propiolonitrile]
Conversion [1, 10]: 2.3%**

CC(=O)Nc1ccc(C#CC#N)cc1 [Compound 11, N-(4-(Cyanoethynyl)phenyl)acetamide]
Conversion [1, 9]: 52.3%
hydrolysis (in words) ([3]; PBS (1×, pH 7.6), 1 mM, 25° C., up to 5 hours of monitoring): no hydrolysis could be detected; also recorded: No detectable conversion; also recorded: no detectable change in concentration
hydrolysis (in words) ([3]; after a week at room temperature): no trace of hydrolyzed product could be detected

N#CC=C(SCC(N)C(=O)NCc1ccccc1)c1ccccc1 (stereo not drawn) [addition product]
Conversion of “addition product” in 1 h ([8]; 100 mM PhSH in PBS(7.4):DMSO = 80:20): 0.7%
Conversion of “addition product” in 1 h ([8]; 1M Glutathione reduced (GSH) in PBS (7.4)): 0.4%
Conversion of “addition product” in 1 h ([8]; 1M H2O2): 1.8%
Conversion of “addition product” in 1 h ([8]; 1M HCl (pH = 0)): 0.1%
Conversion of “addition product” in 1 h ([8]; 1M Imidazole in PBS (7.4)): 0.5%
Conversion of “addition product” in 1 h ([8]; 1M NaOH (pH = 14)): 3.4%
thiol exchange (in words) ([8]; 1 hour with an excess of phenylthiol or glutathione): no exchange product could be observed; also recorded: hardly any thiol exchange is observed
stability (in words) ([8]; wide range of conditions, pH from 0 to 14): stable in a wide range of pH (from 0 to 14); also recorded: stable and undergoes very little degradation in a wide range of conditions

COc1ccc(C#CC#N)cc1 [Compound 3, 3-(4-Methoxyphenyl)propiolonitrile]
Conversion [1, 9]: 14.6%

N#CC#Cc1ccccc1[N+](=O)[O-] [Compound 10, 3-(2-Nitrophenyl)propiolonitrile]
Conversion [1, 9]: 70.4%*
